Source: ChEMBL document CHEMBL1201862, “PubChem BioAssay data set” (2004)
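Step 1: Grow cells in 96-well plates. Step 2: Expose to compound for 48 hours at 5 concentrations. Step 3: Interpolate endpoints linearly; if unreached, use highest concentration. GI50 = concentration required for 50% inhibition of growth.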 The source made the active and inactive calls. Rule as the data show it: active = GI50 up to about 1.1 µM and inactive = higher.

Columns and labels:
Assay in all cases: NCI tumour cell line growth inhibition, 48 h
UACC-257 = system: UACC-257
HOP-92 = system: HOP-92
RXF 393 = system: RXF 393
HCC 2998 = system: HCC 2998
Malme-3M = system: Malme-3M
TK-10 = system: TK-10
CCRF-CEM = system: CCRF-CEM
SF-295 = system: SF-295
HL-60 = system: HL-60
MOLT-4 = system: MOLT-4
Hs-578T = system: Hs-578T
OVCAR-8 = system: OVCAR-8
UO-31 = system: UO-31
PC-3 = system: PC-3
BT-549 = system: BT-549
ACHN = system: ACHN
HCT-116 = system: HCT-116
MDA-MB-435 = system: MDA-MB-435
A549 = system: A549
M14 = system: M14

Structure (SMILES) | GI50 (UACC-257) | GI50 (HOP-92) | GI50 (RXF 393) | GI50 (HCC 2998) | GI50 (Malme-3M) | GI50 (TK-10) | GI50 (CCRF-CEM) | GI50 (SF-295) | GI50 (HL-60) | GI50 (MOLT-4) | GI50 (Hs-578T) | GI50 (OVCAR-8) | GI50 (UO-31) | GI50 (PC-3) | GI50 (BT-549) | GI50 (ACHN) | GI50 (HCT-116) | GI50 (MDA-MB-435) | GI50 (A549) | GI50 (M14)
CC[C@@]1(O)C(=O)OCc2c1cc1n(c2=O)Cc2c-1nc1ccccc1c2/C=N\NC(=O)C(N)Cc1c[nH]c2ccccc12 (stereo not given in full) | 1.96 µM (inactive) | 3.8 µM (inactive) | 0.145 µM (active) | 2.3 µM (inactive) | 1.76 µM (inactive) | 20 µM (inactive) | < 0.01 µM (active) | 0.0887 µM (active) | 0.0638 µM (active) | < 0.01 µM (active) | 27.9 µM (inactive) | 0.555 µM (active) | 0.173 µM (active) | 1.29 µM (inactive) | 6.25 µM (inactive) | < 0.0188 µM (active) | 0.392 µM (active) | 1.05 µM (active) | 0.301 µM (active) | 0.332 µM (active)
NC(=O)c1nc[nH]c1/N=N/SCC(N)C(=O)O (stereo not given) | 54.8 µM (inactive) | 15.7 µM (inactive) | > 100 µM (inactive) | 4.06 µM (inactive) | 5.9 µM (inactive) | 5.32 µM (inactive) | 2 µM (inactive) | 6.32 µM (inactive) | 1.26 µM (inactive) | 0.962 µM (active) | > 56.9 µM (inactive) | 5.74 µM (inactive) | 4.22 µM (inactive) | 15.7 µM (inactive) | > 90.8 µM (inactive) | 13 µM (inactive) | 6.9 µM (inactive) | 33.1 µM (inactive) | > 100 µM (inactive) | 2.81 µM (inactive)
CO/C(=N\N=C\c1cccc(C(F)(F)F)c1)c1ccncc1 | 14 µM (inactive) | 23.3 µM (inactive) | 6.64 µM (inactive) | 6.41 µM (inactive) | 4.6 µM (inactive) | 17.5 µM (inactive) | 4.62 µM (inactive) | 1.76 µM (inactive) | 2.83 µM (inactive) | 5.21 µM (inactive) | 5.93 µM (inactive) | 9.46 µM (inactive) | 4.47 µM (inactive) | 40.7 µM (inactive) | 7.13 µM (inactive) | 8.13 µM (inactive) | 5.52 µM (inactive) | 2.32 µM (inactive) | 8.09 µM (inactive) | 6.3 µM (inactive)
CCOP(=O)(O)C(Nc1ccc(/N=N/c2ccccc2)cc1)c1ccc(C(Nc2ccc(/N=N/c3ccccc3)cc2)P(=O)(O)OCC)cc1 (stereo not given) | 26.4 µM (inactive) | 22.1 µM (inactive) | 25.2 µM (inactive) | 17.9 µM (inactive) | 17.9 µM (inactive) | 36.2 µM (inactive) | 22.1 µM (inactive) | 18.9 µM (inactive) | 17.1 µM (inactive) | 20.3 µM (inactive) | 18.6 µM (inactive) | 16.3 µM (inactive) | 67.1 µM (inactive) | 17.1 µM (inactive) | 18.1 µM (inactive) | > 100 µM (inactive) | 18.3 µM (inactive) | 17.4 µM (inactive) | 29.7 µM (inactive) | 15.7 µM (inactive)
O=C(/C=C/c1ccccc1O)CC(=O)/C=C/c1ccccc1O | 10.3 µM (inactive) | 5.81 µM (inactive) | 3.25 µM (inactive) | 10.5 µM (inactive) | 11.7 µM (inactive) | 23.7 µM (inactive) | 3.1 µM (inactive) | 6.53 µM (inactive) | 3.24 µM (inactive) | 3.78 µM (inactive) | 8.17 µM (inactive) | 4.41 µM (inactive) | 4.73 µM (inactive) | 5.28 µM (inactive) | 5.62 µM (inactive) | 5.92 µM (inactive) | 2.38 µM (inactive) | 4.38 µM (inactive) | 7.14 µM (inactive) | 12.8 µM (inactive)
Cc1n[nH]c(=O)n1-c1cccnc1 | > 100 µM (inactive) | > 100 µM (inactive) | > 100 µM (inactive) | > 100 µM (inactive) | > 100 µM (inactive) | > 100 µM (inactive) | > 100 µM (inactive) | > 100 µM (inactive) | > 100 µM (inactive) | > 100 µM (inactive) | > 100 µM (inactive) | > 100 µM (inactive) | > 100 µM (inactive) | > 100 µM (inactive) | > 100 µM (inactive) | > 100 µM (inactive) | > 100 µM (inactive) | > 100 µM (inactive) | > 100 µM (inactive) | > 100 µM (inactive)
O=C(CCc1ccc(O)cc1)NCCc1cccc(OCc2ccccc2)c1 | 17.6 µM (inactive) | 23.6 µM (inactive) | 15.8 µM (inactive) | 24.4 µM (inactive) | 27.7 µM (inactive) | 28.6 µM (inactive) | 2.96 µM (inactive) | 30.3 µM (inactive) | 16.6 µM (inactive) | 14 µM (inactive) | 35.3 µM (inactive) | 26.2 µM (inactive) | 12.7 µM (inactive) | 20.1 µM (inactive) | 16.7 µM (inactive) | 33.2 µM (inactive) | 21.8 µM (inactive) | 18.1 µM (inactive) | 40.1 µM (inactive) | 17.8 µM (inactive)
C[C@@H]1C[C@H]2CC[C@H](O2)[C@H](C)C(=O)O[C@@H](C)C[C@@H]2CC[C@@H](O2)[C@@H](C)C(=O)O[C@H](C)C[C@H]2CC[C@H](O2)[C@H](C)C(=O)O[C@@H](C)C[C@@H]2CC[C@@H](O2)[C@@H](C)C(=O)O1 | 0.242 µM (active) | 0.183 µM (active) | 0.356 µM (active) | 1.1 µM (active) | 0.199 µM (active) | 0.425 µM (active) | 0.292 µM (active) | 0.242 µM (active) | 0.157 µM (active) | 0.36 µM (active) | 0.489 µM (active) | 0.295 µM (active) | 0.374 µM (active) | 0.218 µM (active) | 0.396 µM (active) | 0.212 µM (active) | 0.315 µM (active) | 0.338 µM (active) | 0.344 µM (active) | 0.434 µM (active)
